Assays:
[1] = target: Poly [ADP-ribose] polymerase 2 (Mus musculus, UniProt O88554); test: PARP Enzyme Inhibition Assay; conditions: 25 °C
Description: (§1) To assess the inhibitory activity of novel inhibitors, the PARP enzyme assay was carried out in reaction mixture consisting of activated salmon testes DNA, [adenylate-32P]-NAD, recombinant PARP enzyme, and various concentrations of PARP inhibitors. The reaction mixture was incubated at room temperature for 15 min, and the reaction was terminated by adding trichloroacetic acid. The precipitate was transferred onto GF/B filter. After the filter was washed and dried, the radioactivity was determined by liquid scintillation counting. IC50 values were calculated from the concentration dependence of the inhibition curves by using computer-assisted non-linear regression analyses.

[2] = target: Poly [ADP-ribose] polymerase 1 (Homo sapiens, UniProt P09874); test: PARP Enzyme Inhibition Assay; conditions: pH 8; 23 °C
Description: as §1

Chain of Poly [ADP-ribose] polymerase 1 (P09874 whole entry): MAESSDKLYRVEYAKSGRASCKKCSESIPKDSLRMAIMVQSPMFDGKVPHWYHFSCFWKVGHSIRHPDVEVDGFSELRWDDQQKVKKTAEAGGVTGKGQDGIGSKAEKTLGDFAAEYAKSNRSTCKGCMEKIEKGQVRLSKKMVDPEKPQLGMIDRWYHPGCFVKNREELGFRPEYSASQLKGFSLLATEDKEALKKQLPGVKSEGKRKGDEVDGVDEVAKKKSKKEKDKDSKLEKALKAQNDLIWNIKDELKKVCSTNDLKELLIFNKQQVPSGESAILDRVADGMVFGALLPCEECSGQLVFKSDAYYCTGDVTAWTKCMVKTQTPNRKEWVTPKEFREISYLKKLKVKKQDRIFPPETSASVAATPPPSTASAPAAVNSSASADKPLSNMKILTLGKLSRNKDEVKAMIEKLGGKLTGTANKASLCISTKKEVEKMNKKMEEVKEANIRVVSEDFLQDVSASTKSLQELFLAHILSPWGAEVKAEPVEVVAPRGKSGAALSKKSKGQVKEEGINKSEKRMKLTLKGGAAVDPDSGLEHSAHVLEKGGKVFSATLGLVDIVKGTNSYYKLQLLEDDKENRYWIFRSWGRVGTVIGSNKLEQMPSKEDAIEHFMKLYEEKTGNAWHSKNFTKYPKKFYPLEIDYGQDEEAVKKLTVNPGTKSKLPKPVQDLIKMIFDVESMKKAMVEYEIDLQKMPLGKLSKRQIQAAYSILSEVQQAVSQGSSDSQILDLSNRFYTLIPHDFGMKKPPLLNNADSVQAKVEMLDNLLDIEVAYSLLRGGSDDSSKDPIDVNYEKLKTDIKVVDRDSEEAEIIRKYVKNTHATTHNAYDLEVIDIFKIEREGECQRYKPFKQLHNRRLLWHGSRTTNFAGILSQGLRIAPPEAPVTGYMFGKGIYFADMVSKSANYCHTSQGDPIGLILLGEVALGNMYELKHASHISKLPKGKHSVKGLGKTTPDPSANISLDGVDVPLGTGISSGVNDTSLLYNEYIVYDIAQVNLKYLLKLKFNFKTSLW
Chain of Poly [ADP-ribose] polymerase 2 (O88554 whole entry): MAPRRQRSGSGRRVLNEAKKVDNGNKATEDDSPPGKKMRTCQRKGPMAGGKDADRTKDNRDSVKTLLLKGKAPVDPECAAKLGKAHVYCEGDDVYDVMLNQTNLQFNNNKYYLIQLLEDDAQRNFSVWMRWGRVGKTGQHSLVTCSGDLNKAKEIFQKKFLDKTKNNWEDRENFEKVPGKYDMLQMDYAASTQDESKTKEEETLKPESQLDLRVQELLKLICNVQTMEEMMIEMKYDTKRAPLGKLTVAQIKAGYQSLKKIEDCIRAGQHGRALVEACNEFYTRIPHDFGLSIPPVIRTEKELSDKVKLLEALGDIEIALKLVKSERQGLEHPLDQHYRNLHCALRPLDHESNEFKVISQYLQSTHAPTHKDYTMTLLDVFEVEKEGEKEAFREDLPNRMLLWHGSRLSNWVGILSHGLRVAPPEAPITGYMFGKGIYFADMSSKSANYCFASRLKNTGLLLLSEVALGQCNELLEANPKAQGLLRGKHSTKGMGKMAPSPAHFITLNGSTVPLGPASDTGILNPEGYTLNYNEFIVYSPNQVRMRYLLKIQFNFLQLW

Row | Structure (SMILES) | IC50 [1] [nM] | IC50 [2] [nM]
1 | NC(=O)c1cccc(N)c1 | 9810 | 
2 | O=c1[nH]c(CCCN2CC=C(c3ccccc3)CC2)nc2c(Cl)cccc12 | 610 | 23
3 | N#Cc1ccc(C2=CCN(CCCc3nc4c(Cl)cccc4c(=O)[nH]3)CC2)cc1 | 87 | 3
4 | Cc1cccc2c(=O)[nH]c(CCCN3CC=C(c4ccc(F)cc4)CC3)nc12 | 167 | 16
5 | O=c1[nH]c2ccc(CCCN3CC=C(c4ccccc4)CC3)cc2c2ccccc12 | 84 | 82
6 | N#Cc1ccc(-c2cnc3cccc(C(N)=O)c3n2)cc1 | 8 | 101
7 | NC(=O)c1cccc2ncc(-c3ccc(C(F)(F)F)cc3)nc12 | 11 | 118
8 | COc1ccc(-c2cnc3cccc(C(N)=O)c3n2)cc1 | 8 | 71
9 | O=c1[nH]c(=O)n(CCCCN2CC=C(c3ccccc3)CC2)c2ccccc12 [1-[4-(4-phenyl-1,2,3,6-tetrahydropyridin-1-yl)butyl]-1,2,3,4-tetrahydroquinazoline-2,4-dione] | 70 | 120
10 | O=c1[nH]c(CCCN2CC=C(c3ccccc3)CC2)nc2ccccc12 [2-[3-(4-phenyl-1,2,3,6-tetrahydropyridin-1-yl)propyl]-3,4-dihydroquinazolin-4-one] | 608 | 21
11 | O=c1[nH]c(CCCN2CCN(c3ccc(Cl)cc3)CC2)nc2ccccc12 [2-{3-[4-(4-chlorophenyl)piperazin-1-yl]propyl}-3,4-dihydroquinazolin-4-one] | 300 | 11
12 | NC(=O)c1cccc2ncc(-c3ccc(N)cc3)nc12 [3-(4-aminophenyl)quinoxaline-5-carboxamide] | 9 | 87
13 | NC(=O)c1cccc2ncc(-c3ccc(Cl)cc3)nc12 [3-(4-chlorophenyl)quinoxaline-5-carboxamide] | 7 | 33
14 | NC(=O)c1cccc2ncc(-c3ccccc3)nc12 [3-phenylquinoxaline-5-carboxamide] | 14 | 131
15 | O=c1[nH]nc(CCCCN2CC=C(c3ccccc3)CC2)c2ccccc12 [4-[4-(4-Phenyl-3,6-dihydro-2H-pyridin-1-yl)-butyl]-2H-phthalazin-1-one] | 90 | 120
16 | O=c1[nH]nc(CCCCN2CC=C(c3ccc(F)cc3)CC2)c2ccccc12 [4-{4-[4-(4-fluorophenyl)-1,2,3,6-tetrahydropyridin-1-yl]butyl}-1,2-dihydrophthalazin-1-one] | 84 | 49
17 | O=c1[nH]c(CCCN2CC=C(c3ccccc3)CC2)nc2cccc(Cl)c12 [5-Chloro-2-[3-(4-phenyl-3,6-dihydro-2H-pyridin-1-yl)-propyl]-3H-quinazolin-4-one] | 630 | 68
18 | Cc1nc2cccc(Cl)c2c(=O)[nH]1 [5-chloro-2-methyl-3,4-dihydroquinazolin-4-one] | 660 | 
19 | O=c1[nH]c(=O)n(CCCCC2CC=C(c3ccccc3)CC2)c2cccc(F)c12 (stereo unspecified) [5-fluoro-1-[4-(4-phenylcyclohex-3-en-1-yl)butyl]-1,2,3,4-tetrahydroquinazoline-2,4-dione] |  | > 1000
20 | O=c1[nH]c(CCCN2CC=C(c3ccc(F)cc3)CC2)nc2c(Cl)cccc12 [8-chloro-2-{3-[4-(4-fluorophenyl)-1,2,3,6-tetrahydropyridin-1-yl]propyl}-3,4-dihydroquinazolin-4-one] | 500 | 

From BindingDB's records for doi:10.1016/j.bmc.2005.09.061 (Fujisawa Pharmaceutical, 2006)
